From PubChem BioAssay (NCI) come the findings set out here.

Molecules are shown by their SMILES.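 These data come from cells grown in 96-well plates and exposed to compound for 48 hours at five concentrations. TGI is the concentration that stops growth completely.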 A value given as a limit tells only on which side of the number the result lay.

Test systems include A498 renal; HCT-15 colon; KM12 colon; MALME-3M melanoma; MOLT-4 leukemia; OVCAR-3 ovarian; SF-268 CNS; SNB-75 CNS; UO-31 renal; SK-MEL-5 melanoma.
Experiment in all cases: NCI anticancer screen, dose series, 48 h

Take `CC(=O)c1ccc2c(c1)oc(=O)n2CCN(C)C`: the TGI in the assay with A498 renal, with HCT-15 colon, with KM12 colon, in the assay on MALME-3M melanoma, in the assay on MOLT-4 leukemia and in the assay on OVCAR-3 ovarian was above 100 µM in each case. Also, the TGI with SF-268 CNS and in the assay with SNB-75 CNS was above 100 µM each time.

Regarding `O=c1c2cc(-c3ccccc3)cnc2sn1-c1ccc([N+](=O)[O-])cc1`, the TGI in the assay on A498 renal is above 100 µM; with HCT-15 colon, above 100 µM; with KM12 colon it was above 100 µM; with MALME-3M melanoma it was above 100 µM; with MOLT-4 leukemia, above 100 µM; in the assay on OVCAR-3 ovarian, 60.2 µM. Also, the TGI with SF-268 CNS, in the assay on SNB-75 CNS and with UO-31 renal was above 100 µM each time.

In the case of `CCCCCC(/C=C/[C@@H]1CC(=O)C[C@H]1O[Si](C)(C)C(C)(C)C)OCOCCOC` (some centres undefined), the TGI was found to be 18.1 µM in the assay on A498 renal; 15.2 µM in the assay on HCT-15 colon; 8.96 µM with KM12 colon; 5.32 µM in the assay with MALME-3M melanoma; 4.97 µM in the assay with MOLT-4 leukemia; 11.3 µM in the assay on OVCAR-3 ovarian. Moreover, the TGI was found to be 10.5 µM in the assay on SF-268 CNS, 9.33 µM with SK-MEL-5 melanoma, 11.5 µM in the assay on SNB-75 CNS and 6.44 µM in the assay with UO-31 renal.

Regarding `CN(N)C(=O)NCCCl`, the TGI in the assay with A498 renal, in the assay on HCT-15 colon, in the assay with KM12 colon, in the assay on MALME-3M melanoma, with MOLT-4 leukemia and with OVCAR-3 ovarian was above 100 µM in each case. The TGI in the assay on SF-268 CNS, in the assay with SK-MEL-5 melanoma, in the assay with SNB-75 CNS and with UO-31 renal was above 100 µM each time.

On to `N=C1N=C(N)c2cc3c(cc21)SCCSCCCSCCS3`, for which the TGI in the assay on A498 renal is above 69.6 µM; in the assay with HCT-15 colon, 32.3 µM; in the assay on KM12 colon, 26.7 µM; in the assay on MALME-3M melanoma it was 44.4 µM; in the assay on MOLT-4 leukemia it was 32.5 µM; in the assay with OVCAR-3 ovarian, 28.4 µM. The TGI in the assay with SF-268 CNS was 32.4 µM; in the assay with SK-MEL-5 melanoma, 31.7 µM; in the assay on SNB-75 CNS, 46.9 µM; in the assay with UO-31 renal, above 100 µM.

`CCN(CC)C(=S)SNCCc1ccc(S(N)(=O)=O)cc1`: the TGI was above 65.1 µM with A498 renal; 38.5 µM with HCT-15 colon; 37.6 µM in the assay on KM12 colon; 24.3 µM in the assay with MALME-3M melanoma; 43.9 µM in the assay on OVCAR-3 ovarian; 35.9 µM with SF-268 CNS. In addition, the TGI was 24.4 µM in the assay on SK-MEL-5 melanoma, 27 µM in the assay on SNB-75 CNS and 27 µM in the assay on UO-31 renal.

For the compound `Oc1[nH]c2ccccc2c1N=NC(=S)N1CCCCCC1`, the TGI in the assay with A498 renal was 2.3 µM; with HCT-15 colon it was 10 µM; with KM12 colon it was 2.22 µM; with MALME-3M melanoma, 3.02 µM; with MOLT-4 leukemia it was 3.1 µM; in the assay on OVCAR-3 ovarian it was 1.49 µM. In addition, the TGI in the assay with SF-268 CNS was found to be 11.8 µM; in the assay on SK-MEL-5 melanoma it was 2.04 µM; with SNB-75 CNS, 4.34 µM; with UO-31 renal, 3.08 µM.

Turning to `CC(=O)NC1C(OCc2ccccc2)OC(CO)C(O)C1OCC(=O)NC(C)C(=O)NC(CCC(=O)NCCCCCC(=O)Nc1ccc2c(c1)CN1C(=O)c3ccccc3C1=N2)C(N)=O` (centres undefined), the TGI with A498 renal, with HCT-15 colon, in the assay with KM12 colon, with MALME-3M melanoma, in the assay on MOLT-4 leukemia and in the assay on OVCAR-3 ovarian was above 100 µM throughout. The TGI in the assay with SF-268 CNS, in the assay with SK-MEL-5 melanoma, with SNB-75 CNS and in the assay on UO-31 renal was above 100 µM throughout.

With `CC(=O)OCC1OC(OCC2OC(N3C(=S)N[C@H]([C@@H](O)[C@H](O)[C@H](O)CO)[C@H]3O)C(OC(C)=O)C(OC(C)=O)C2OC(C)=O)C(OC(C)=O)C(OC(C)=O)C1OC(C)=O` (some centres undefined), the TGI in the assay on A498 renal, with HCT-15 colon, with KM12 colon, in the assay with MALME-3M melanoma, in the assay on MOLT-4 leukemia and in the assay with OVCAR-3 ovarian was above 100 µM throughout. In addition, the TGI in the assay on SF-268 CNS, with SK-MEL-5 melanoma and with UO-31 renal was above 100 µM throughout.

With `O=[N+]([O-])c1cccc2nc3ccccc3c(NCCC[N+]3([O-])CCCCC3)c12`, the TGI with A498 renal is 2.47 µM; in the assay on HCT-15 colon, above 100 µM; in the assay on KM12 colon, 2.07 µM; in the assay with MALME-3M melanoma, 0.352 µM; with MOLT-4 leukemia, above 100 µM; with OVCAR-3 ovarian, 0.852 µM. Moreover, the TGI with SF-268 CNS was 2.22 µM; in the assay with SK-MEL-5 melanoma it was 1.35 µM; in the assay on SNB-75 CNS, 1.4 µM; in the assay with UO-31 renal, above 58.6 µM.

Consider `Cc1ccnc(NC(=S)Nc2ccccc2Cl)c1`, for which the TGI in the assay on A498 renal, with HCT-15 colon, in the assay on KM12 colon, with MALME-3M melanoma, in the assay with MOLT-4 leukemia and in the assay on OVCAR-3 ovarian was above 100 µM in each case. Also, the TGI was above 100 µM in the assay with SF-268 CNS, above 100 µM in the assay with SK-MEL-5 melanoma, 71.7 µM with SNB-75 CNS and above 100 µM in the assay on UO-31 renal.

Take `O=C(/C=C/c1cccs1)c1ccsc1`: the TGI was above 100 µM with A498 renal; 40.5 µM in the assay on HCT-15 colon; above 10 µM in the assay with KM12 colon; 59 µM in the assay on MALME-3M melanoma; 40.6 µM in the assay on MOLT-4 leukemia; above 100 µM in the assay on SF-268 CNS. Besides, the TGI with SK-MEL-5 melanoma turned out to be 36 µM; in the assay on SNB-75 CNS it was 89 µM; with UO-31 renal, 32.4 µM.

Take `NCCCCNCCCN`: the TGI with A498 renal, in the assay on HCT-15 colon, in the assay with KM12 colon, in the assay with MALME-3M melanoma, in the assay on MOLT-4 leukemia and with OVCAR-3 ovarian was above 100 µM throughout. The TGI with SF-268 CNS, with SK-MEL-5 melanoma, in the assay on SNB-75 CNS and with UO-31 renal was above 100 µM throughout.

On to `C[C@H](CC[C@@H](O)C(C)(C)O)[C@H]1CC[C@@]2(C)[C@@H]3CC=C4[C@@H](CC[C@H](OC5OC(CO)C(O)C(O)C5O)C4(C)C)[C@]3(C)C(=O)C[C@]12C` (some centres undefined), for which the TGI with A498 renal, with HCT-15 colon, with KM12 colon, in the assay with MALME-3M melanoma, in the assay on MOLT-4 leukemia and in the assay with OVCAR-3 ovarian was above 100 µM throughout. The TGI in the assay on SF-268 CNS, in the assay on SK-MEL-5 melanoma, in the assay on SNB-75 CNS and in the assay with UO-31 renal was above 100 µM each time.
